Experiment [1] has as its system HCV replicon I389luc-ubi-neo/NS3-3′/ET in ET (Huh-lucubineo-ET) cells. The experiment can be described thus: Replicon assay (Biological Example 2), luciferase readout. Format: cell-based. To be noted: Hepatitis C virus. The method, boiled down:
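EC50 values come from Hill fits of % inhibition of replicon-driven firefly luciferase, relative to no-compound wells. Compounds were serially diluted (10 points, 3-fold, 0.1 nM–50 μM final, 0.5% DMSO) onto ET replicon cells and read after 48 h.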
(In general: In antiviral work, replicon cells carry a viral genome segment that copies itself.)

Experiment [2] has as its target T1, HCV polymerase (Hepatitis C virus genotype 1b, UniProt Q9WMX2).
T1 construct: (His)6 (C); made in house; host or cells: XL-1 cells (E. coli, by own knowledge)
Put plainly: Polymerase assay of Biological Example 1 (IC50 values of Table 3). The format is biochemical. To be noted: IC50 values of Table 3, polymerase assay of Biological Example 1; read-out: NS5B-enzyme3.

[3] abbreviates: ET cells, luciferase activity 48 hours after compound.

Structures are written as SMILES.

Consider `C[C@@H]1CCCN1c1ccc(S(=O)(=O)N2CC(=O)N(c3cc(-c4ccccc4)sc3C(=O)O)C(C3CCCCC3)C2)cc1` (stereo partly drawn) [Compound 127, 3-{2-Cyclohexyl-4-[4-((R)-2-methyl-pyrrolidin-1-yl)-benzenesulfonyl]-6-oxo-piperazin-1-yl}-5-phenyl-thiophene-2-carboxylic acid], for which the IC50 in experiment [1] (setting [3]) is at most 100 nM; in experiment [2], 3 nM.
For `CC1C(=O)N(c2cc(-c3ccccc3)sc2C(=O)O)C(C2CCCCC2)CN1S(=O)(=O)c1ccc(N2CCOCC2)nc1` (centres unmarked) [Compound 128, 3-[6-Cyclohexyl-3-methyl-4-(6-morpholin-4-yl-pyridine-3-sulfonyl)-2-oxo-piperazin-1-yl]-5-phenyl-thiophene-2-carboxylic acid], the IC50 in experiment [1] (between 100 nM and 5.0 uM) was 100 to 5000 nM; in experiment [2], 9 nM.
Turning to `N#Cc1ccc(-c2cc(N3C(=O)CCCC3C3CCCCC3)c(C(=O)O)s2)cc1` (centres unmarked) [Compound 129, 5-(4-Cyano-phenyl)-3-(2-cyclohexyl-6-oxo-piperidin-1-yl)-thiophene-2-carboxylic acid], the IC50 in experiment [1] (between 100 nM and 5.0 uM) was 100 to 5000 nM; in experiment [2] it was 96 nM.
On to `C[C@@H]1CCCN1c1ccc(S(=O)(=O)N2CC(=O)N(c3cc(-c4ccccc4)sc3C(=O)O)[C@H](C3CCCCC3)C2)cn1` [Compound 130, 3-{(R)-2-Cyclohexyl-4-[6-((R)-2-methyl-pyrrolidin-1-yl)-pyridine-3-sulfonyl]-6-oxo-piperazin-1-yl}-5-phenyl-thiophene-2-carboxylic acid], for which the IC50 in experiment [1] (setting [3]) is at most 100 nM; in experiment [2], 1 nM.
Take `C[C@@H]1CCCN1c1ccc(S(=O)(=O)N2CC(=O)N(c3cc(-c4ccccc4)sc3C(=O)O)[C@@H](C3CCCCC3)C2)cn1` [Compound 131, 3-{(S)-2-Cyclohexyl-4-[6-((R)-2-methyl-pyrrolidin-1-yl)-pyridine-3-sulfonyl]-6-oxo-piperazin-1-yl}-5-phenyl-thiophene-2-carboxylic acid]: the IC50 in experiment [1] (between 100 nM and 5.0 uM) was 100 to 5000 nM; in experiment [2], 261 nM.
Regarding `O=C(O)c1sc(-c2ccccc2)cc1N1C(=O)CN(S(=O)(=O)c2ccc(N3CCNCC3)nc2)C[C@@H]1C1CCCCC1` [Compound 132, 3-[(S)-2-Cyclohexyl-6-oxo-4-(6-piperazin-1-yl-pyridine-3-sulfonyl)-piperazin-1-yl]-5-phenyl-thiophene-2-carboxylic acid], the IC50 in experiment [1] (setting [3]) is at least 5000 nM; in experiment [2] it was 108 nM.
On the same counts, the results for `O=C(O)c1sc(-c2ccccc2)cc1N1C(=O)CN(S(=O)(=O)c2ccc(N3CCCC3)nc2)C[C@H]1C1CCCCC1` [Compound 135, 3-[(R)-2-Cyclohexyl-6-oxo-4-(6-pyrrolidin-1-yl-pyridine-3-sulfonyl)-piperazin-1-yl]-5-phenyl-thiophene-2-carboxylic acid] are at most 100 nM and 2.33 nM.
Regarding `O=C(O)c1sc(-c2ccccc2)cc1N1C(=O)CN(S(=O)(=O)c2ccc(N3CCCC3)nc2)C[C@@H]1C1CCCCC1` [Compound 136, 3-[(S)-2-Cyclohexyl-6-oxo-4-(6-pyrrolidin-1-yl-pyridine-3-sulfonyl)-piperazin-1-yl]-5-phenyl-thiophene-2-carboxylic acid], the IC50 was 100 to 5000 nM in experiment [1] (between 100 nM and 5.0 uM); 260 nM in experiment [2].
Take `CN1CCN(c2ccc(S(=O)(=O)N3CC(=O)N(c4cc(-c5ccccc5)sc4C(=O)O)[C@H](C4CCCCC4)C3)cn2)CC1` [Compound 137, 3-{(R)-2-Cyclohexyl-4-[6-(4-methyl-piperazin-1-yl)-pyridine-3-sulfonyl]-6-oxo-piperazin-1-yl}-5-phenyl-thiophene-2-carboxylic acid]: the IC50 in experiment [1] (setting [3]) was at most 100 nM; in experiment [2] it was 1.5 nM.
For the compound `CC1(N)CCN(c2ccc(S(=O)(=O)N3CC(=O)N(c4cc(-c5ccccc5)sc4C(=O)O)[C@H](C4CCCCC4)C3)cn2)CC1` [Compound 138, 3-[(R)-4-(4-Amino-4-methyl-3,4,5,6-tetrahydro-2H-[1,2′]bipyridinyl-5′-sulfonyl)-2-cyclohexyl-6-oxo-piperazin-1-yl]-5-phenyl-thiophene-2-carboxylic acid], the figures for the IC50 in experiment [1] (setting [3]) and in experiment [2] were at most 100 nM and 1 nM, respectively.

These data come from US9498483B2, “2,3,5-trisubstituted thiophene compounds and uses thereof” (priority 2010, dated 2016).
